Read-outs that look alike come from different tables or passages of the source.
Tested on: P. falciparum 3D7 gametocytes
Assay: alamarBlue gametocyte viability assay, strain 3D7
Assay type: cell-based, Plasmodium falciparum
Settings: for Max Resp: DMSO set at 0%, 100 nM epoxomicin set at -100%; for Curve Class / IC50: stages III-V 3D7 gametocytes; for IC50: 11 concentrations, 1:3 dilution; call rule not given here

Structure (SMILES)	Max Resp (Malaria Box)	Curve Class (Malaria Box)	IC50 (Malaria Box, read-out: IC50)	IC50 (Malaria Box)	IC50 (Plasmodium falciparum, 3D7, Malaria Box, read-out: IC50)
COc1ccc2c(c1)C1(Nc3ccccc3-c3nc4ccccc4n31)C(=O)N2 (stereo not drawn) [MMV396749]	-61%	-2.2	18.7 µM		
O=C(NNc1cc(N2CCCC2)nc(N2CCCC2)n1)c1ccccc1 [MMV396770]	-93%	-2.1	10.5 µM		
CC(C)(C)CC(C)(C)NCC(O)COc1ccc(Cl)cc1Cl (stereo not drawn) [MMV396794]	-106%	-1.1	2.96 µM		
COc1ccc(-c2c(C)nn3c(N)c(C#N)cnc23)cc1OC [MMV396797]	-90%	-1.1	6.62 µM		
Cc1cccc(-n2ncc3c(O)nc(-n4nc(C)cc4NC(=O)c4cc5ccccc5o4)nc32)c1 [MMV403679]	-64%	-2.2	18.7 µM		
CCOC(=O)c1c[nH]c2c(CC)cccc2c1=O [MMV498479]	28%	4		Inactive	
Nc1ccn([C@@H]2O[C@H](CO)[C@@H](O)[C@H]2O)c(=O)n1 [MMV638723]	-5%	4		Inactive	
C=CC12CCN(CC1)C(C(O)c1ccnc3ccc(OC)cc13)C2.Cl (stereo not drawn) [MMV665782]	-31%	-1.2	0.209 µM		
CCN(CC)CCCNc1ccnc2cc3ccccc3cc12 [MMV665783]	-50%	-2.2		Inactive	
CC(C)(C)c1ccc(O)c(CNC2CCCCC2)c1 [MMV665785]	-50%	-1.2	0.148 µM		
O=c1cc(NC2CCN(CCCc3ccccc3)CC2)c2cc(Cl)ccc2o1 [MMV665786]	-89%	-2.1	14.8 µM		
CC(NCc1ccccc1)c1cc(Cl)ccc1O (stereo not drawn) [MMV665789]	-58%	-1.2	1.32 µM		
FC(F)(F)c1cccc(Nc2nc3ccccc3nc2Nc2cccc(C(F)(F)F)c2)c1 [MMV665794]	-98%	-2.1	18.7 µM		
CCOc1cc(Br)c(C(C)NC(=O)c2cccc(OC)c2)cc1OCC (stereo not drawn) [MMV665796]	-58%	-2.2	37.2 µM		
CCCCOC(=O)c1ccc(Nc2cc(C)nc3ccc(OC)cc23)cc1 [MMV665797]	-47%	-2.2		Inactive	
FC(F)(F)c1cccc(Nc2nc(-c3ccccc3)nc3ncccc23)c1 [MMV665798]	-7%	4		Inactive	
COc1ccc(C(=O)Nc2ccc(Cl)cc2C(=O)Nc2ccncc2)cc1 [MMV665799]	-28%	4		Inactive	
CCOc1cc(Cl)c(C(C)NC(=O)c2ccccc2)cc1OCC (stereo not drawn) [MMV665800]	-48%	-2.2		Inactive	
CCOc1cc(Cl)c(C(C)NC(=O)c2cccc(OC)c2)cc1OCC (stereo not drawn) [MMV665803]	-58%	-2.2	29.6 µM		
CCOc1ccc(-c2nonc2NC(=O)c2cccc(C)c2)cc1OCC [MMV665805]	-69%	-1.2	4.18 µM		

Structure (SMILES)	Max Resp (Malaria Box)	Curve Class (Malaria Box)	IC50 (Malaria Box, read-out: IC50)	IC50 (Malaria Box)	IC50 (Plasmodium falciparum, 3D7, Malaria Box, read-out: IC50)
Cc1c(C)n(CC(O)CNC2CCCCC2C)c2ccccc12 (stereo not drawn) [MMV665806]	-89%	-1.1	3.32 µM		
O=C(Nc1cccc(C(F)(F)F)c1)c1cc(Cl)ccc1O [MMV665807]	-84%	-2.1	20.9 µM		
Oc1ccc(Br)cc1CN1CCN(Cc2ccc(Cl)cc2)CC1 [MMV665809]	-58%	-1.2	3.72 µM		
O=C(Nc1cccc(C2=NCCN2)c1)Nc1cccc(C2=NCCN2)c1 [MMV665810]	-78%	-2.2			18.7 µM
CCc1ccc(CNCC(O)c2ccccc2)cc1.Cl (stereo not drawn) [MMV665812]	-74%	-1.2	5.26 µM		
CCOC(=O)c1cnc2ccc(OC)cc2c1NCc1ccccc1 [MMV665813]	-14%	4		Inactive	
Oc1c(C(Nc2ccccn2)c2cccc(Oc3ccccc3)c2)ccc2cccnc12 (stereo not drawn) [MMV665814]	-107%	-2.1	9.35 µM		
CC(C)(C)CC(C)(C)NCC(O)COc1ccc2c(c1)CCC2.Cl (stereo not drawn) [MMV665817]	-107%	-2.1	9.35 µM		
COc1ccc2c(=O)cc(C(Cl)(Cl)Cl)oc2c1 [MMV665820]	-101%	-1.1	3.72 µM		
Cn1c(C(=O)c2cccc3ccccc23)nc2ccccc21 [MMV665824]	-53%	-2.4		Inactive	
COc1cccc(NC(=O)Cn2c(C)c(C#N)c3ccccc32)c1 [MMV665826]	-52%	-2.2		Inactive	
CCOC(=O)c1cn(CC)c2cc(N3CCCCC3)c(F)cc2c1=O [MMV665827]	7%	4		Inactive	
CC1CC2=C(CC1CNCCCN(C)C)C(C)(C)CCC2 (stereo not drawn) [MMV665830]	-88%	-1.1	1.66 µM		
CCOC(=O)c1c(NC(=O)c2ccccc2)sc2c(O)c(CN(CC)CC)ccc12 [MMV665831]	-58%	-2.2	7.43 µM		
COc1ccc(/C=C2/SC(=Nc3ccccc3)NC2=O)cc1 [MMV665836]	13%	4		Inactive	
O=C(Nc1ccc(-c2nc3ccccc3[nH]2)cc1)c1ccc(Cl)c(Cl)c1 [MMV665840]	-16%	4		Inactive	
CCCc1cc(O)c2c3c(c(=O)oc2c1)CN(C)CC3 [MMV665841]	-28%	-1.2	0.662 µM		
O=c1c2c([nH]c3ccccc13)CCCC2 [MMV665843]	-7%	4		Inactive	
Oc1ccc(Cl)cc1CNc1nc2ccccc2[nH]1 [MMV665850]	-50%	-2.2		Inactive	
O=C(Nc1ccc(Cl)c(Cl)c1)Nc1ccc(Cl)c(Cl)c1 [MMV665852]	-88%	-2.1	23.5 µM		

Structure (SMILES)	Max Resp (Malaria Box)	Curve Class (Malaria Box)	IC50 (Malaria Box, read-out: IC50)	IC50 (Malaria Box)	IC50 (Plasmodium falciparum, 3D7, Malaria Box, read-out: IC50)
CCOc1c(Cl)cc(CNC(C)C(O)c2ccccc2)cc1OC (stereo not drawn) [MMV665857]	-77%	-2.2	14.8 µM		
CCCCNc1nc(NC(C)(C)C)nc(NC(C)(C)C)n1 [MMV665864]	-93%	-2.1	13.2 µM		
Cc1cc(Nc2ccc(C)c(Cl)c2)n2nc(C(F)(F)F)nc2n1 [MMV665874]	-2%	4		Inactive	
Cl.Cn1c(=O)n(C)c2cc(CNCCNc3ccnc4cc(Cl)ccc34)ccc21 [MMV665875]	-41%	-1.2	0.372 µM		
CCC(c1ccccc1)c1nn2c(-c3cccs3)nnc2s1 (stereo not drawn) [MMV665876]	-47%	-2.2		Inactive	
COc1cccc(NC(=O)[C@H](C(C)C)n2c(=O)[nH]c3ccccc3c2=O)c1 [MMV665878]	-82%	-1.1	2.64 µM		
CC(C)(C)C(=O)Nc1ccc(C(=O)Nc2cccc(-c3nc4ccccc4[nH]3)c2)cc1 [MMV665879]	-23%	4		Inactive	
COc1ccc(CNC(=O)c2cc3c(=O)n4ccccc4nc3n(CCc3ccccc3)c2=N)cc1 [MMV665881]	-29%	4		Inactive	
OC(CNC1CCCCC1)Cn1c2ccc(I)cc2c2cc(I)ccc21 (stereo not drawn) [MMV665882]	-97%	-2.1	2.96 µM		
O=C(Nc1cccc(-c2nc3ccccc3[nH]2)c1)c1cccc(NC(=O)c2ccco2)c1 [MMV665883]	-25%	4		Inactive	
CC(Oc1ccc(NC(=O)c2cccs2)cc1)C(=O)c1ccc(Cl)cc1 (stereo not drawn) [MMV665886]	44%	2.2	18.7 µM		
O=C(Nc1ccccc1O)c1ccc(Oc2cccc(C(=O)Nc3ccccc3O)c2)cc1 [MMV665888]	-76%	-2.2	14.8 µM		
COc1ccc(-c2nonc2NC(=O)c2cccc(C)c2)cc1OC [MMV665890]	-38%	-3		Inactive	
c1ccc(-c2ccc(-c3nc4ccccc4[nH]3)cc2)cc1 [MMV665891]	18%	4		Inactive	
CC(=O)c1sc(NC(=O)Nc2ccc(C)cc2C)nc1C [MMV665894]	-23%	4		Inactive	
COc1ccc2nc(N)nc(C)c2c1 [MMV665897]	-66%	-2.2	29.6 µM		
COc1cc(C(=O)Nc2ccc(-c3nc4ccccc4[nH]3)cc2)cc(OC)c1OC [MMV665898]	-26%	4		Inactive	
O=C(c1ccccc1F)N(Cc1ccc(Cl)cc1)c1ccccn1 [MMV665899]	-26%	4		Inactive	
O=C(Nc1ccc(CN2CCOCC2)cc1)c1ccc(-c2ccc(Br)cc2)o1 [MMV665901]	-41%	-2.4		Inactive	
